Measurements as given in PubChem BioAssay AID2060501 (Molecular Pharmacology Branch, DTP, NCI, 2025).
pIC50: −log10 of the molar value.

System: 282377-053-R-J1-PDC complex spheroids, viability
Assay: Anticancer human tumor 282377-053-R-J1-PDC patient-derived colon adenocarcinoma cell line growth inhibition [GQUAD]
Conditions: for pIC50: curve of first compound; for viability, T/C: stronger effect = lower value
Summary of the method: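 Tumor cells were grown as complex spheroids with HUVEC endothelial cells and mesenchymal stem cells as stroma. G-quadruplex stabilizers were combined with targeted agents over half-log dilutions from near the clinical Cmax, or from 10 microM.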

[1] = second compound 0.0316 µM, first compound 0.0316 µM
[2] = second compound 0.0316 µM, first compound 0.1 µM
[3] = second compound 0.0316 µM, first compound 0.316 µM
[4] = second compound 0.0316 µM, first compound 1 µM
[5] = second compound 0.0316 µM, first compound 3.16 µM
[6] = second compound 0.0316 µM, first compound 10 µM
[7] = second compound 0.1 µM, first compound 0.0316 µM
[8] = second compound 0.1 µM, first compound 0.1 µM
[9] = second compound 0.1 µM, first compound 0.316 µM
[10] = second compound 0.1 µM, first compound 1 µM
[11] = second compound 0.1 µM, first compound 3.16 µM
[12] = second compound 0.1 µM, first compound 10 µM
[13] = second compound 0.316 µM, first compound 0.0316 µM
[14] = second compound 0.316 µM, first compound 0.1 µM
[15] = second compound 0.316 µM, first compound 0.316 µM
[16] = second compound 0.316 µM, first compound 1 µM
[17] = second compound 0.316 µM, first compound 3.16 µM
[18] = second compound 0.316 µM, first compound 10 µM
[19] = second compound 1 µM, first compound 0.0316 µM
[20] = second compound 1 µM, first compound 0.1 µM
[21] = second compound 1 µM, first compound 0.316 µM
[22] = second compound 1 µM, first compound 1 µM
[23] = second compound 1 µM, first compound 3.16 µM
[24] = second compound 1 µM, first compound 10 µM
[25] = second compound 3.16 µM, first compound 0.0316 µM
[26] = second compound 3.16 µM, first compound 0.1 µM
[27] = second compound 3.16 µM, first compound 0.316 µM
[28] = second compound 3.16 µM, first compound 1 µM
[29] = second compound 3.16 µM, first compound 3.16 µM
[30] = second compound 3.16 µM, first compound 10 µM
[31] = second compound 10 µM, first compound 0.0316 µM
[32] = second compound 10 µM, first compound 0.1 µM
[33] = second compound 10 µM, first compound 0.316 µM
[34] = second compound 10 µM, first compound 1 µM
[35] = second compound 10 µM, first compound 3.16 µM
[36] = second compound 10 µM, first compound 10 µM
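Further: spheroids exposed to compounds for 7 days before readout.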
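Wherever viability, T/C is given: percent of vehicle DMSO control viability with 100% = untreated-like growth.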

Nc1ccn(C2OC(CO)C(O)C2(F)F)c(=O)n1 (stereo not given) + Cc1cnc(CNC(=O)c2c(=O)c3ccc(N4CCCN(C)CC4)nc3n3c2sc2ccccc23)cn1
pIC50 (second compound 0.0316 µM): 6.80
pIC50 (second compound 0.1 µM): 6.84
pIC50 (second compound 0.316 µM): 6.92
pIC50 (second compound 1 µM): 7.31
pIC50 (second compound 3.16 µM): > 7.50
pIC50 (second compound 10 µM): > 7.50
viability, T/C [1]: 98.5%
viability, T/C [2]: 65.9%
viability, T/C [3]: 25.2%
viability, T/C [4]: 24%
viability, T/C [5]: 22.9%
viability, T/C [6]: 16.7%
viability, T/C [7]: 104%
viability, T/C [8]: 61.7%
viability, T/C [9]: 24.5%
viability, T/C [10]: 24.9%
viability, T/C [11]: 25.1%
viability, T/C [12]: 16.3%
viability, T/C [13]: 81.6%
viability, T/C [14]: 53.6%
viability, T/C [15]: 32%
viability, T/C [16]: 22.1%
viability, T/C [17]: 22.7%
viability, T/C [18]: 16.2%
viability, T/C [19]: 53.9%
viability, T/C [20]: 44.1%
viability, T/C [21]: 25.6%
viability, T/C [22]: 22.4%
viability, T/C [23]: 20.4%
viability, T/C [24]: 15.7%
viability, T/C [25]: 49.1%
viability, T/C [26]: 37.5%
viability, T/C [27]: 23.2%
viability, T/C [28]: 21%
viability, T/C [29]: 22.4%
viability, T/C [30]: 15.9%
viability, T/C [31]: 39.2%
viability, T/C [32]: 33.5%
viability, T/C [33]: 22.1%
viability, T/C [34]: 20.3%
viability, T/C [35]: 20%
viability, T/C [36]: 10.8%

C=CC(=O)N1CCN(c2nc(=O)n(-c3c(C)ccnc3C(C)C)c3nc(-c4c(O)cccc4F)c(F)cc23)C(C)C1 (stereo not given) + Cc1cnc(CNC(=O)c2c(=O)c3ccc(N4CCCN(C)CC4)nc3n3c2sc2ccccc23)cn1
pIC50 (second compound 0.0316 µM): < 5.00
pIC50 (second compound 0.1 µM): < 5.00
pIC50 (second compound 0.316 µM): < 5.00
pIC50 (second compound 1 µM): < 5.00
pIC50 (second compound 3.16 µM): < 5.00
pIC50 (second compound 10 µM): 5.43
viability, T/C [1]: 129%
viability, T/C [2]: 116%
viability, T/C [3]: 115%
viability, T/C [4]: 116%
viability, T/C [5]: 103%
viability, T/C [6]: 100%
viability, T/C [7]: 119%
viability, T/C [8]: 91.7%
viability, T/C [9]: 115%
viability, T/C [10]: 122%
viability, T/C [11]: 110%
viability, T/C [12]: 94.1%
viability, T/C [13]: 89.8%
viability, T/C [14]: 98.9%
viability, T/C [15]: 102%
viability, T/C [16]: 98.3%
viability, T/C [17]: 103%
viability, T/C [18]: 90.8%
viability, T/C [19]: 77.2%
viability, T/C [20]: 64.2%
viability, T/C [21]: 74.7%
viability, T/C [22]: 80.4%
viability, T/C [23]: 76%
viability, T/C [24]: 57.4%
viability, T/C [25]: 60.2%
viability, T/C [26]: 51%
viability, T/C [27]: 63.2%
viability, T/C [28]: 53.6%
viability, T/C [29]: 61.9%
viability, T/C [30]: 53.6%
viability, T/C [31]: 52.2%
viability, T/C [32]: 40.8%
viability, T/C [33]: 58.4%
viability, T/C [34]: 56.6%
viability, T/C [35]: 56.9%
viability, T/C [36]: 33%

C=CC(=O)N1CCN(c2nc(=O)n(-c3c(C)ccnc3C(C)C)c3nc(-c4c(O)cccc4F)c(F)cc23)C(C)C1 (stereo not given) + Cc1[nH]c2ccc(F)cc2c1-c1nc2c3cccnc3c3ncccc3c2[nH]1
pIC50 (second compound 0.0316 µM): < 5.00
pIC50 (second compound 0.1 µM): < 5.00
pIC50 (second compound 0.316 µM): < 5.00
pIC50 (second compound 1 µM): < 5.00
pIC50 (second compound 3.16 µM): 5.01
pIC50 (second compound 10 µM): > 7.50
viability, T/C [1]: 106%
viability, T/C [2]: 102%
viability, T/C [3]: 125%
viability, T/C [4]: 108%
viability, T/C [5]: 126%
viability, T/C [6]: 80.9%
viability, T/C [7]: 122%
viability, T/C [8]: 110%
viability, T/C [9]: 98.9%
viability, T/C [10]: 100%
viability, T/C [11]: 100%
viability, T/C [12]: 89.9%
viability, T/C [13]: 109%
viability, T/C [14]: 110%
viability, T/C [15]: 87.1%
viability, T/C [16]: 122%
viability, T/C [17]: 105%
viability, T/C [18]: 99.8%
viability, T/C [19]: 114%
viability, T/C [20]: 98.1%
viability, T/C [21]: 103%
viability, T/C [22]: 106%
viability, T/C [23]: 119%
viability, T/C [24]: 103%
viability, T/C [25]: 82.1%
viability, T/C [26]: 108%
viability, T/C [27]: 71.5%
viability, T/C [28]: 75.9%
viability, T/C [29]: 98.4%
viability, T/C [30]: 48.8%
viability, T/C [31]: 28.3%
viability, T/C [32]: 32%
viability, T/C [33]: 37.6%
viability, T/C [34]: 40%
viability, T/C [35]: 31%
viability, T/C [36]: 27.2%

CC(C)(O)C1CCC(Nc2ccc3ncc(-c4cccc(C(F)(F)F)c4)n3n2)CC1 (stereo not given) + Cc1[nH]c2ccc(F)cc2c1-c1nc2c3cccnc3c3ncccc3c2[nH]1
pIC50 (second compound 0.0316 µM): < 5.00
pIC50 (second compound 0.1 µM): < 5.00
pIC50 (second compound 0.316 µM): < 5.00
pIC50 (second compound 1 µM): < 5.00
pIC50 (second compound 3.16 µM): < 5.00
pIC50 (second compound 10 µM): 5.54
viability, T/C [1]: 107%
viability, T/C [2]: 95.9%
viability, T/C [3]: 114%
viability, T/C [4]: 103%
viability, T/C [5]: 86.1%
viability, T/C [6]: 76.9%
viability, T/C [7]: 122%
viability, T/C [8]: 103%
viability, T/C [9]: 91.5%
viability, T/C [10]: 95.3%
viability, T/C [11]: 103%
viability, T/C [12]: 73.3%
viability, T/C [13]: 107%
viability, T/C [14]: 96.7%
viability, T/C [15]: 87.7%
viability, T/C [16]: 95.1%
viability, T/C [17]: 103%
viability, T/C [18]: 91.9%
viability, T/C [19]: 115%
viability, T/C [20]: 95.8%
viability, T/C [21]: 88.8%
viability, T/C [22]: 118%
viability, T/C [23]: 81.4%
viability, T/C [24]: 92.3%
viability, T/C [25]: 88.8%
viability, T/C [26]: 71.1%
viability, T/C [27]: 70.7%
viability, T/C [28]: 79.2%
viability, T/C [29]: 100%
viability, T/C [30]: 63.1%
viability, T/C [31]: 61.9%
viability, T/C [32]: 51.5%
viability, T/C [33]: 75.6%
viability, T/C [34]: 48.4%
viability, T/C [35]: 46.9%
viability, T/C [36]: 42.7%

O=C(c1cc(Cc2n[nH]c(=O)c3ccccc23)ccc1F)N1CCN(C(=O)C2CC2)CC1 + Cc1cnc(CNC(=O)c2c(=O)c3ccc(N4CCCN(C)CC4)nc3n3c2sc2ccccc23)cn1
pIC50 (second compound 0.0316 µM): < 5.00
pIC50 (second compound 0.1 µM): < 5.00
pIC50 (second compound 0.316 µM): < 5.00
pIC50 (second compound 1 µM): < 5.00
pIC50 (second compound 3.16 µM): 5.61
pIC50 (second compound 10 µM): 7.15
viability, T/C [1]: 103%
viability, T/C [2]: 100%
viability, T/C [3]: 140%
viability, T/C [4]: 92.9%
viability, T/C [5]: 90.6%
viability, T/C [6]: 89.2%
viability, T/C [7]: 106%
viability, T/C [8]: 121%
viability, T/C [9]: 93%
viability, T/C [10]: 84.9%
viability, T/C [11]: 110%
viability, T/C [12]: 92.3%
viability, T/C [13]: 84.2%
viability, T/C [14]: 91.9%
viability, T/C [15]: 74.6%
viability, T/C [16]: 89.8%
viability, T/C [17]: 95.6%
viability, T/C [18]: 73.3%
viability, T/C [19]: 61.2%
viability, T/C [20]: 55.8%
viability, T/C [21]: 54.7%
viability, T/C [22]: 61%
viability, T/C [23]: 60.8%
viability, T/C [24]: 54%
viability, T/C [25]: 60.8%
viability, T/C [26]: 51.1%
viability, T/C [27]: 59.2%
viability, T/C [28]: 52.3%
viability, T/C [29]: 46.2%
viability, T/C [30]: 48.6%
viability, T/C [31]: 52.9%
viability, T/C [32]: 47.4%
viability, T/C [33]: 47.7%
viability, T/C [34]: 48.9%
viability, T/C [35]: 40.1%
viability, T/C [36]: 46.6%
